In patent US6897306B2, “3-heterocyclylpropanohydroxamic acids” (Pfizer Products, Inc., priority 1999, dated 2005):
Read-outs that look alike come from different tables or passages of the source. Where a SMILES comes first, the peptide text is derived from it. [ ]: non-standard residue; d: D form. The star is where a group is joined. Sta = CC(C)C[C@H](N)[C@@H](O)CC(=O)O; Isovaleryl = CC(C)CC(=O)*

B1: α2-Macroglobuline: protein reported to at least partially inhibit PCP activity (protein, UniProt P01023 24-1474, looked up)
Alpha-2-macroglobulin: SVSGKPQYMVLVPSLLHTETTEKGCVLLSYLNETVTVSASLESVRGNRSLFTDLEAENDVLHCVAFAVPKSSSNEEVMFLTVQVKGPTQEFKKRTTVMVKNEDSLVFVQTDKSIYKPGQTVKFRVVSMDENFHPLNELIPLVYIQDPKGNRIAQWQSFQLEGGLKQFSFPLSSEPFQGSYKVVVQKKSGGRTEHPFTVEEFVLPKFEVQVTVPKIITILEEEMNVSVCGLYTYGKPVPGHVTVSICRKYSDASDCHGEDSQAFCEKFSGQLNSHGCFYQQVKTKVFQLKRKEYEMKLHTEAQIQEEGTVVELTGRQSSEITRTITKLSFVKVDSHFRQGIPFFGQVRLVDGKGVPIPNKVIFIRGNEANYYSNATTDEHGLVQFSINTTNVMGTSLTVRVNYKDRSPCYGYQWVSEEHEEAHHTAYLVFSPSKSFVHLEPMSHELPCGHTQTVQAHYILNGGTLLGLKKLSFYYLIMAKGGIVRTGTHGLLVKQEDMKGHFSISIPVKSDIAPVARLLIYAVLPTGDVIGDSAKYDVENCLANKVDLSFSPSQSLPASHAHLRVTAAPQSVCALRAVDQSVLLMKPDAELSASSVYNLLPEKDLTGFPGPLNDQDNEDCINRHNVYINGITYTPVSSTNEKDMYSFLEDMGLKAFTNSKIRKPKMCPQLQQYEMHGPEGLRVGFYESDVMGRGHARLVHVEEPHTETVRKYFPETWIWDLVVVNSAGVAEVGVTVPDTITEWKAGAFCLSEDAGLGISSTASLRAFQPFFVELTMPYSVIRGEAFTLKATVLNYLPKCIRVSVQLEASPAFLAVPVEKEQAPHCICANGRQTVSWAVTPKSLGNVNFTVSAEALESQELCGTEVPSVPEHGRKDTVIKPLLVEPEGLEKETTFNSLLCPSGGEVSEELSLKLPPNVVEESARASVSVLGDILGSAMQNTQNLLQMPYGCGEQNMVLFAPNIYVLDYLNETQQLTPEIKSKAIGYLNTGYQRQLNYKHYDGSYSTFGERYGRNQGNTWLTAFVLKTFAQARAYIFIDEAHITQALIWLSQRQKDNGCFRSSGSLLNNAIKGGVEDEVTLSAYITIALLEIPLTVTHPVVRNALFCLESAWKTAQEGDHGSHVYTKALLAYAFALAGNQDKRKEVLKSLNEEAVKKDNSVHWERPQKPKAPVGHFYEPQAPSAEVEMTSYVLLAYLTAQPAPTSEDLTSATNIVKWITKQQNAQGGFSSTQDTVVALHALSKYGAATFTRTGKAAQVTIQSSGTFSSKFQVDNNNRLLLQQVSLPELPGEYSMKVTGEGCVYLQTSLKYNILPEKEEFPFALGVQTLPQTCDEPKAHTSFQISLSVSYTGSRSASNMAIVDVKMVSGFIPLKPTVKMLERSNHVSRTEVSSNHVLIYLDKVSNQTLSLFFTVLQDVPVRDLKPAIVKVYDYYETDEFAIAEYNAPCSKDLGNA
B2: ovostatin: protein reported to at least partially inhibit PCP activity (protein, UniProt P20740 37-1473, looked up)
Ovostatin: KEPEPQYVLMVPAVLQSDSPSQVCLQFFNLNQTISVRVVLEYDTINTTIFEKNTTTSNGLQCLNFMIPPVTSVSLAFISFTAKGTTFDLKERRSVMIWNMESFVFVQTDKPIYKPGQSVMFRVVALDFNFKPVQEMYPLIAVQDPQNNRIFQWQNVTSEINIVQIEFPLTEEPILGNYKIIVTKKSGERTSHSFLVEEYVLPKFDVTVTAPGSLTVMDSELTVKICAVYTYGQPVEGKVQLSVCRDFDSYGRCKKSPVCQSFTKDLDTDGCLSHILSSKVFELNRIGYKRNLDVKAIVTEKEQVCNLTATQSISITQVMSSLQFENVDHHYRRGIPYFGQIKLVDKDNSPISNKVIQLFVNNKNTHNFTTDINGIAPFSIDTSKIFDPELSLKALYKTSDQCHSEGWIEPSYPDASLSVQRLYSWTSSFVRIEPLWKDMSCGQKRMITVYYILNTEGYEHINIVNFYYVGMAKGKIVLTGEIKVNIQADQNGTFMIPLVVNEKMAPALRLLVYMLHPAKELVADSVRFSIEKCFKNKVQLQFSEKQMLTTSNVSLVIEAAANSFCAVRAVDKSMLLLKSETELSAETIYNLHPIQDLQGYIFNGLNLEDDPQDPCVSSDDIFHKGLYYRPLTSGLGPDVYQFLRDMGMKFFTNSKIRQPTVCTRETVRPPSYFLNAGFTASTHHVKLSAEVAREERGKRHILETIREFFPETWIWDIILINSTGKASVSYTIPDTITEWKASAFCVEELAGFGMSVPATLTAFQPFFVDLTLPYSIIHGEDFLVRANVFNYLNHCIKINVLLLESLDYQAKLISPEDDGCVCAKIRKSYVWNIFPKGTGDVLFSITAETNDDEACEEEALRNIRIDYRDTQIRALLVEPEGIRREETQNFLICMKDDVISQDVAIDLPTNVVEGSPRPSFSVVGDIMGTAIQNVHQLLQMPFGNGEQNMVLFAPNIYVLDYLDKTRQLSEDVKSKTIGYLVSGYQKQLSYKHPDGSYSTFGIRDKEGNTWLTAFVYKSFAEASRFIYIDDNVQAQTLIWLATKQKTDGCFQSTGILVNNAMKGGVENELSLSAYITIALLEAGHSMSHTVIRNAFYCLETASEKNITDIYTQALVAYAFCLAGKAEICESFLRELQKSAKEVDGSKYWEQNQRSAPEKSHLLDHVQSTDVEITSYVLLALLYKPNRSQEDLTKASAIVQWIIRQQNSYGGFASMQDTVVALQALAAYGAATYNSVTQNVIKINSKNTFEKVFTVNNENRLLLQQTPLPQVPGKYSLTVNGTGCVLIQTALRYNIHLPEGAFGFSLSVQTSNASCPRDQPGKFDIVLISSYTGKRSSSNMVIIDVKMLSGFVPVKSSLDQLIDDHTVMQVEYKKNHVLLYLGNILQKRRKEVTFSVEQDFVVTHPKPAPVQIYDYYETEEYAVAEYMSLCRGVVEEMG

Tests used:
PCP = conditions: cited from earlier work
[1] = Dynamic Vapour Sorption (moisture sorption); assay type: physicochemical
Procedure: Melting points were determined using open glass capillary tubes and a Gallenkamp melting point apparatus and are uncorrected. Nuclear magnetic resonance (NMR) data were obtained using Varian Unity Inova-400, Varian Unity Inova-300 or Bruker AC300 spectrometers and are quoted in parts per million from tetramethylsilane. Mass spectral (MS) data were obtained on a Finnigan Mat. TSQ 7000 or a Fisons Instruments Trio 1000. The calculated and observed ions quoted refer to the isotopic composition of lowest mass. Infra red (1R) spectra were measured using a Nicolet Magna 550 Fourier transform infra-red spectrometer. Flash chromatography refers to column chromatography on silica gel (Kieselgel 60, 230-400 mesh, from E. Merck, Darmstadt. Kieselgel 60 F254 plates from E. Merck were used for TLC, and compounds were visualised using UV light, 5% aqueous potassium permanagate or Dragendorff's reagent (oversprayed with aqueous sodium nitrite). Thermal analyses by Differential Scanning Calorimetry (DSC) and ThermoGravimetric Analysis (TGA) were obtained using Perkin Elmer DSC7 and TGA7. Moisture sorption characteristics were recorded using Surface Measurement Systems Ltd. Automated Water Sorption Analyser DVS 1. Water content was determined on a Mitsubishi CA100 (Coulometric Karl Fisher Titrator). Powder X-ray diffraction (PXRD) pattern was determined using a Siemens D5000 powder X-ray diffractometer fitted with an automatic sample changer, a theta-theta goniometer, automatic beam divergence slits, a secondary monochromator and a scintillation counter. Other measurements were taken using standard equipment. Hexane refers to a mixture of hexanes (hplc grade) b.p. 65-70° C. Ether refers to diethyl ether. Acetic acid refers to glacial acetic acid. 1-Hydroxy-7-aza-1H-1,2,3-benzotriazole (HOAt), N-[(dimethylamino)-1H-1,2,3-triazolo[4,5-b]pyridin-1-ylmethylene]-N-methylmethaninium hexafluorophosphate N-oxide (HATU) and 7-azabenzotriazol-1-yloxytris(pyrrolidino)phosphonium hexafluorophosphate (PyAOP) were purchased from PerSeptive Biosystems U.K. Ltd. “DIPE” refers to diisopropyl ether. Reverse-phase silica gel for flash chromatography was obtained from Fluka (Fluka 100, C18, 40-63μ). Pentane refers to High Performance Liquid Chromatography (HPLC) grade n-pentane (b.pt.35-37° C.). Nomenclature has been allocated using a program available from IUPAC. Standard abbreviations are used throughout, e.g. “Me” is methyl, “Et” is ethyl, “Pr” is propyl, “Ph” is phenyl, etc. It was noticed that during certain repetitions of the methods disclosed in the Examples and Preparations that some racemisation appeared to have taken place. It was found in some cases that specific desired enantiomers can be separated from mixtures thereof by routine methods such as by differential crystallisation. • ^aHPLC autopurification performed using 2 columns—Phenomonex LUNA C8 150×21.2 mm, 10 μm and Phenomonex […] C18 150×21.2 mm, […], eluting with a gradient system of organic solvent [ammonium acetate (aq) 100 mM:acetonitrile (1:9)]:aqueous solvent [ammonium acetate (aq) 100 mM:acetonitrile (9:1)] • ^bHPLC autopurification performed using 2 columns—Phenomonex LUNA C8 150×21.2 mm, 10 μm and Phenomonex […] C18 150×21.2 mm, 5 μm, eluting with a gradient system of organic solvent (acetonitrile):aqueous solvent (0.1% aqueous trifluoroacetic acid)

| Molecule | PCP inhibition (in words) (PCP; literature reports) | other results |
| --- | --- | --- |
| O[C@H](CS)[C@H](O)CS (racemic) [Dithiothreitol] | inhibitory at low concentrations |  |
| [Cd+2] [Cd^2+] | inhibitory at low concentrations |  |
| [Cu+2] [Cu^2+] | inhibitory at low concentrations |  |
| NC(=O)c1noc([C@H](CCCC2CCCCC2)CC(=O)NO)n1 [Example 2(b), 5-{(1R)-4-Cyclohexyl-1-[2-(hydroxyamino)-2-oxoethyl]butyl}-1,2,4-oxadiazole-3-carboxamide Monohydrate] |  | Dynamic Vapour Sorption ([1]; 2% RH (30° C.)): 4.84 % w/w; Dynamic Vapour Sorption ([1]; 20% RH (30° C.)): 5.17 % w/w; Dynamic Vapour Sorption ([1]; below 1% RH (30° C.)): significant dehydration |
| NC(=O)c1noc([C@H](CCCC2CCCCC2)CC(=O)NO)n1 [Example 2(c), 5-{(1R)-4-Cyclohexyl-1-[2-(hydroxyamino)-2-oxoethyl]butyl}-1,2,4-oxadiazole-3-carboxamide (Anhydrous)] |  | Dynamic Vapour Sorption ([1]; 15% RH (30° C.)): 0.18 % w/w; Dynamic Vapour Sorption ([1]; 30% RH (30° C.)): 0.23 % w/w; Dynamic Vapour Sorption, hydration behaviour ([1]; 60% RH (30° C.), converting to the monohydrate (XRD)): hydrates slowly; Dynamic Vapour Sorption, equilibrium ([1]; 90% RH (30° C.)): 5.3 % w/w |
| O=C(C[C@@H](CCCC1CCCCC1)c1nc(C(=O)NCc2ccccn2)no1)NO [Example 10, 5-{(1R)-4-Cyclohexyl-1-[2-(hydroxyamino)-2-oxoethyl]butyl}-N-(2-pyridinylmethyl) -1,2,4-oxadiazole-3-carboxamide] |  | melting point: 128 to 130 °C |
| O=C(O)CNC(=O)c1noc([C@H](CCCC2CCCCC2)CC(=O)NO)n1 [Example 11, 2-{[(5-{(1R)-4-Cyclohexyl-1-[2-(hydroxyamino)-2-oxoethyl]butyl}-1,2,4-oxadiazol-3-yl)carbonyl]amino}acetic Acid] |  | melting point: 141 to 142 °C |
| CCCCCCCCCCCCOS(=O)(=O)[O-].[Na+] [SDS] | inhibitory at low concentrations |  |
| [Zn+2] [Zn^2+] | inhibitory at low concentrations |  |
| N=C(N)NCCC[C@H](N)C(=O)O [arginine] | inhibited |  |
| CC(C)C[C@H](NC(=O)[C@@H](NC(=O)N[C@@H](Cc1ccccc1)C(=O)O)[C@@H]1CCN=C(N)N1)C(=O)N[C@H](C=O)Cc1ccccc1 [chymostatin] | relatively strong inhibitors |  |
| NCCCC[C@H](N)C(=O)O [lysine] | inhibited |  |
| CC(C)CC(=O)N[C@H](C(=O)N[C@H](C(=O)N[C@@H](CC(C)C)[C@@H](O)CC(=O)N[C@@H](C)C(=O)N[C@@H](CC(C)C)[C@@H](O)CC(=O)O)C(C)C)C(C)C [pepstatin A] (Isovaleryl-VV[Sta]A[Sta]-OH) | relatively strong inhibitors |  |
| Tris-HCl [Tris-HCl buffer] |  | PCP inhibition (in words) (PCP; buffer concentration 0.2-0.5M): markedly inhibited activity |
| concanavalin A | inhibitory at low concentrations |  |
| B1 | at least partially inhibit |  |
| B2 | at least partially inhibit |  |
